Measured values reported in paper PMC5207538, “Substrates and Inhibitors of SAMHD1” (PLoS ONE, 2017).

Target: T1, SAMHD1 (Homo sapiens, UniProt Q9Y3Z3)
T1 construct: recombinant SAMHD1 with N-terminal GST tag
Test: TLC-based [γ-32P]-dTTP triphosphohydrolase kinetics; HPLC dGTP hydrolysis assay
Type: biochemical

T1 sequence (Q9Y3Z3 whole entry): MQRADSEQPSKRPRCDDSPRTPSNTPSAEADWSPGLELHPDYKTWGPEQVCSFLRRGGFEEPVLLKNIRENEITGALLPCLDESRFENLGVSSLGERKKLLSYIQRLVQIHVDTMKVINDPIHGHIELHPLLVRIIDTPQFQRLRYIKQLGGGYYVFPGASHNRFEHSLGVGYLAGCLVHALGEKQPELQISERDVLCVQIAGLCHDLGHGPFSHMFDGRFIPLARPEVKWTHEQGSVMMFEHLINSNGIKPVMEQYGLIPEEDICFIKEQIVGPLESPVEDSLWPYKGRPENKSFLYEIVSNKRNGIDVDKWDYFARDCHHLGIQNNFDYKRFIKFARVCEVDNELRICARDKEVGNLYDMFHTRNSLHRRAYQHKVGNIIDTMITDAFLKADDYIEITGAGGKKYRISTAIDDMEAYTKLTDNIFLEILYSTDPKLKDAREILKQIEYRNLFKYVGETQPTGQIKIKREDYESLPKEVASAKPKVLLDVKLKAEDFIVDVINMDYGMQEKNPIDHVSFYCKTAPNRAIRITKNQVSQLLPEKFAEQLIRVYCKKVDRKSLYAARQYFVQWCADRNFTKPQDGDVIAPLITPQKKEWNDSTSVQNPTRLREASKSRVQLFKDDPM

Ki: 256 ± 70 µM
Structure (SMILES): C[C@H]1[C@H](O)[C@@H](COP(=O)(O)OP(=O)(O)OP(=O)(O)O)O[C@H]1n1ccc(=O)[nH]c1=O [SMDU-TP]
